This passage reports IC50 results from patent US10508085B2, “Compounds and methods for IDO and TDO modulation, and indications therefor” (Plexxikon Inc., priority 2016, dated 2019).

Bounds are passed on as bounds.

Assay [1] has as its target T1, Human Indoleamine 2,3-dioxygenase (IDO) (Homo sapiens, UniProt P14902).
T1 construct: His tag (N); made in house; host or cells: E. coli
As to the kind of experiment: Human IDO enzymatic assay (kynurenine level). As to conditions: 6 nM IDO, 10 μM L-Trp; geometric mean; read-out: IDO1 GMean: IC50 (μM) (Biochemical Assay). The assay is classed as biochemical. Put shortly: (§1)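 IDO conditions: 6 nM His-IDO, 10 μM L-Trp, 5 μM methylene blue, 20 min, RT. TDO conditions: 1 nM His-TDO, 350 μM L-Trp, 0.4 μM methylene blue, 70 min, RT. Both used pH 6.5 phosphate plus ascorbate/catalase, TCA stop at 50° C, kynurenine readout, nonlinear-regression IC50.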

For assay [2], the target named is T2, human IDO (IDO1-expressing HEK293 cells) (Homo sapiens, UniProt P14902).
T2 construct: expressed in transfected cells
T2 sequence (P14902 whole entry): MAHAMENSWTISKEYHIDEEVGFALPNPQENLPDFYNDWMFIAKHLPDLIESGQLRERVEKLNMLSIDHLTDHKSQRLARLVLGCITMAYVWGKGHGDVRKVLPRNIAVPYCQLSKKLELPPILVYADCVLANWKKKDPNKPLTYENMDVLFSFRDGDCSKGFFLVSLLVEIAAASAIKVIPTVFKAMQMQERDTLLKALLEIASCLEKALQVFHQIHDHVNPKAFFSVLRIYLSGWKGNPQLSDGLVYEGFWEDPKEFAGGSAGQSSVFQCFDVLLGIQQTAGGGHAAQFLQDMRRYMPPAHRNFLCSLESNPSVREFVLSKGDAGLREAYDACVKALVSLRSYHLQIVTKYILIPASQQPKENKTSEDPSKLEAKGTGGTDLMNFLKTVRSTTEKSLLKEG
As to the kind of experiment: Cell based kynurenine assay, IDO1-expressing HEK293 cell clones. As to conditions: IDO1-expressing HEK293 cells, 24 hours incubation; geometric mean; read-out: HEK293 IDO1 Kynurenine GMean IC50 (μM) (Cellular Assay). As for the experimental part: (§2) Determine Inhibitor Activity Against IDO or TDO in Cell Based Kynurenine Assay
(§3) IDO1-expressing or TDO-expressing HEK293 cell clones are generated upon stable transfection of plasmids expressing human IDO or human TDO under the control of CMV promoter. Cells are selected in DMEM media supplemented with 10% fetal bovine serum and 1 mg/ml G418 at 37° C. in a humidified incubator supplied with 5% CO2. The assays are performed as follows.
(§4) Cells were seeded in a 96 well plate in 50 μL of culture media at a density of 2.5×10^4 per well. Serial dilutions of compounds (in total volume of 50 μL culture media) are added into cells. 4 wells containing 0.2% DMSO treated cells serve as high controls and 4 wells containing media only with 0.2% DMSO serve as low controls. After 24 hours of incubation, the supernatant was transferred to a 384 well reaction plate and the kynurenine level determined. The percentage inhibition at individual concentrations relative to high and low controls is calculated. The data is analyzed by using nonlinear regression to generate IC50 values.

For assay [3], the target named is T3, human TDO (TDO-expressing HEK293 cells) (Homo sapiens, UniProt P48775).
T3 construct: expressed in transfected cells
T3 sequence (P48775 whole entry): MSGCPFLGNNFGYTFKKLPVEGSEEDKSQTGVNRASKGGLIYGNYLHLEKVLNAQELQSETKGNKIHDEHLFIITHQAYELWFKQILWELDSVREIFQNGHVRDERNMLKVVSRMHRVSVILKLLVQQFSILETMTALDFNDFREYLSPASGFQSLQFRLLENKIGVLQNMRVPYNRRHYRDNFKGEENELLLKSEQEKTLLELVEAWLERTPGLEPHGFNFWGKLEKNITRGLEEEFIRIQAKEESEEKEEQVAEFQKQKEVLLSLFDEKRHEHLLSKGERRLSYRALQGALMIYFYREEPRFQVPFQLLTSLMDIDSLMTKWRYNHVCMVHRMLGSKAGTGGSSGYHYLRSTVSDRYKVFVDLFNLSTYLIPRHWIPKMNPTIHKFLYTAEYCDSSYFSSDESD
As to the kind of experiment: Cell based kynurenine assay, TDO-expressing HEK293 cell clones. As to conditions: TDO-expressing HEK293 cells, 24 hours incubation; geometric mean; read-out: HEK293 TDO Kynurenine GMean IC50 (μM) (Cellular Assay). The procedure: as §2, §3, §4

The target in assay [4] is T4, Human Tryptophan 2,3-dioxygenase (TDO) (Homo sapiens, UniProt P48775).
T4 construct: His tag (N); made in house; host or cells: E. coli
T4 sequence (P48775 whole entry): as above
As to the kind of experiment: Human TDO enzymatic assay (kynurenine level). As to conditions: 1 nM TDO, 350 μM L-Trp; geometric mean; read-out: TDO GMean: IC50 (μM) (Biochemical Assay). Type of assay: biochemical. The method, boiled down: as §1

T1 sequence (P14902 whole entry): as the sequence (P14902 whole entry) above

In the case of `OC(c1cc(Cl)cc2cn[nH]c12)C12CC3CC(CC(C3)C1)C2` [Compound P-0010, ((1S,3s)-adamantan-l-yl)(5-chloro-1H-indazol-7-yl)methanol], the IC50 in assay [1], in assay [2], in assay [3] and in assay [4] was 0.0001 to 10 µM each time.
Take `OC1(c2cc(Cl)cc3cn[nH]c23)CC2(CCC2)C1` [Compound P-0012, 2-(5-chloro-1H-indazol-7-yl)spiro[3.3]heptan-2-ol]: the IC50 is 0.0001 to 10 µM in assay [1], greater than 10 µM in assay [2], 0.0001 to 10 µM in assay [3] and 0.0001 to 10 µM in assay [4].
Turning to `CC1(C(O)c2cc(C(F)(F)F)cc3cn[nH]c23)CCCCC1` (stereo not shown) [Compound P-0013, (1-methylcyclohexyl)(5-(trifluoromethyl)-1H-indazol-7-yl)methanol], the IC50 in assay [1], in assay [2], in assay [3] and in assay [4] was 0.0001 to 10 µM each time.
With `Cc1cc(C(O)C2(C)CCCCC2)c2[nH]ncc2c1` (stereo not shown) [Compound P-0014, (5-methyl-1H-indazol-7-yl)(1-methylcyclohexyl)methanol], the IC50 in assay [1], in assay [2], in assay [3] and in assay [4] was 0.0001 to 10 µM in each case.
Consider `OC(c1cc(Cl)cc2cn[nH]c12)C1CC(F)(F)C1` (stereo not shown) [Compound P-0017, (5-chloro-1H-indazol-7-yl)(3,3-difluorocyclobutyl)methanol], for which the IC50 in assay [1], in assay [2], in assay [3] and in assay [4] was 0.0001 to 10 µM in each case.
For the molecule `CC1(C(O)c2cc(Cl)cc3cn[nH]c23)CC(F)(F)C1` (stereo not shown) [Compound P-0018, (5-chloro-1H-indazol-7-yl)(3,3-difluoro-1-methylcyclobutyl)methanol], the IC50 in assay [1], in assay [2], in assay [3] and in assay [4] was 0.0001 to 10 µM in each case.
With `CC1(C(O)c2cc(Cl)cc3cn[nH]c23)CCCC1` (stereo not shown) [Compound P-0021, (5-chloro-1H-indazol-7-yl)(1-methylcyclopentyl)methanol], the IC50 in assay [1], in assay [2], in assay [3] and in assay [4] was 0.0001 to 10 µM throughout.
On to `OC(c1cc(Cl)cc2cn[nH]c12)C1CCC(F)(F)CC1` (stereo not shown) [Compound P-0022, (5-chloro-1H-indazol-7-yl)(4,4-difluorocyclohexyl)methanol], for which the IC50 in assay [1], in assay [2], in assay [3] and in assay [4] was 0.0001 to 10 µM throughout.
Turning to `CC1(C(O)c2c(Cl)c(Cl)cc3cn[nH]c23)CCCCC1` (stereo not shown) [Compound P-0025, (5,6-dichloro-1H-indazol-7-yl)(1-methylcyclohexyl)methanol], the IC50 in assay [1], in assay [2], in assay [3] and in assay [4] was 0.0001 to 10 µM each time.
Regarding `CC(C)(Cc1ccccc1)C(O)c1cc(Cl)cc2cn[nH]c12` (stereo not shown) [Compound P-0026, 1-(5-chloro-1H-indazol-7-yl)-2,2-dimethyl-3-phenylpropan-1-ol], the IC50 in assay [1], in assay [2], in assay [3] and in assay [4] was 0.0001 to 10 µM throughout.
`CC(C)(c1ccccc1)C(O)c1cc(Cl)cc2cn[nH]c12` (stereo not shown) [Compound P-0027, 1-(5-chloro-1H-indazol-7-yl)-2-methyl-2-phenylpropan-1-ol]: the IC50 in assay [1], in assay [2], in assay [3] and in assay [4] was 0.0001 to 10 µM in each case.
Turning to `CS(=O)(=O)N1CC2(C1)CC(O)(c1cc(Cl)cc3cn[nH]c13)C2` [Compound P-0028, 6-(5-chloro-1H-indazol-7-yl)-2-(methylsulfonyl)-2-azaspiro[3.3]heptan-6-ol], the IC50 in assay [1] is 10 to 100 µM; in assay [2] it was greater than 10 µM; in assay [3], 0.0001 to 10 µM; in assay [4], 0.0001 to 10 µM.
Turning to `OC1(c2cc(Cl)cc3cn[nH]c23)CC2(CCOCC2)C1` [Compound P-0029, 2-(5-chloro-1H-indazol-7-yl)-7-oxaspiro[3.5]nonan-2-ol], the IC50 in assay [1], in assay [2], in assay [3] and in assay [4] was 0.0001 to 10 µM in each case.
Turning to `Cc1cc(C2(O)CC3(CCC3)C2)c2[nH]ncc2c1` [Compound P-0030, 2-(5-methyl-1H-indazol-7-yl)spiro[3.3]heptan-2-ol], the IC50 is 0.0001 to 10 µM in assay [1], greater than 10 µM in assay [2], greater than 10 µM in assay [3] and 0.0001 to 10 µM in assay [4].
Consider `OC1(c2cc(C(F)(F)F)cc3cn[nH]c23)CC2(CCC2)C1` [Compound P-0031, 2-(5-(trifluoromethyl)-1H-indazol-7-yl)spiro[3.3]heptan-2-ol], for which the IC50 is 0.0001 to 10 µM in assay [1], greater than 10 µM in assay [2], greater than 10 µM in assay [3] and 0.0001 to 10 µM in assay [4].
`CC1(C(O)c2cc(Cl)cc3cn[nH]c23)CCC(F)(F)CC1` (stereo not shown) [Compound P-0032, (5-chloro-1H-indazol-7-yl)(4,4-difluoro-1-methylcyclohexyl)methanol]: the IC50 in assay [1], in assay [2], in assay [3] and in assay [4] was 0.0001 to 10 µM in each case.
For the molecule `OC(c1cc(Cl)cc2cn[nH]c12)C1(F)CCC(F)(F)CC1` (stereo not shown) [Compound P-0033, (5-chloro-1H-indazol-7-yl)(1,4,4-trifluorocyclohexyl)methanol], the IC50 in assay [1], in assay [2], in assay [3] and in assay [4] was 0.0001 to 10 µM each time.
On to `CS(=O)(=O)N1CCC2(CC1)CC(O)(c1cc(Cl)cc3cn[nH]c13)C2` [Compound P-0034, 2-(5-chloro-1H-indazol-7-yl)-7-(methylsulfonyl)-7-azaspiro[3.5]nonan-2-ol], for which the IC50 in assay [1], in assay [2], in assay [3] and in assay [4] was 0.0001 to 10 µM each time.
Regarding `O=S(=O)(C1CC1)N1CCC2(CC1)CC(O)(c1cc(Cl)cc3cn[nH]c13)C2` [Compound P-0035, 2-(5-chloro-1H-indazol-7-yl)-7-(cyclopropylsulfonyl)-7-azaspiro[3.5]nonan-2-ol], the 50% inhibitory concentration (IC50) is 0.0001 to 10 µM in assay [1], greater than 10 µM in assay [2], 0.0001 to 10 µM in assay [3] and 0.0001 to 10 µM in assay [4].
As for `OC1(c2c(Cl)c(Cl)cc3cn[nH]c23)CC2(CCC2)C1` [Compound P-0036, 2-(5,6-dichloro-1H-indazol-7-yl)spiro[3.3]heptan-2-ol], the IC50 in assay [1] was 0.0001 to 10 µM; in assay [2] it was 0.0001 to 10 µM; in assay [3], greater than 10 µM; in assay [4], 0.0001 to 10 µM.
For the molecule `Cc1ccc2cn[nH]c2c1C(O)C12CC3CC(CC(C3)C1)C2` (stereo not shown) [Compound P-0037, ((ls,3s)-adamantan-1-yl)(6-methyl-1H-indazol-7-yl)methanol], the IC50 in assay [1] was 0.0001 to 10 µM; in assay [2], 0.0001 to 10 µM; in assay [3], greater than 10 µM; in assay [4] it was 0.0001 to 10 µM.
Regarding `CS(=O)(=O)NC1CC(O)(c2cc(Cl)cc3cn[nH]c23)C1` (stereo not shown) [Compound P-0038, N-(3-(5-chloro-1H-indazol-7-yl)-3-hydroxycyclobutyl)methanesulfonamide], the IC50 in assay [1] is 0.0001 to 10 µM; in assay [2], greater than 10 µM; in assay [3] it was 0.0001 to 10 µM; in assay [4], 0.0001 to 10 µM.
